Data set [1] in a line: Caco-2 cell permeability assay (efflux ratio). In kind it is in vitro ADME, human. The conditions noted are these: human, Caco-2, Papp B to A/Papp A to AB, differentiated Caco-2 cell monolayer; read-out: Caco-2 BA/AB (efflux ratio). As for the experimental part: (§1) The permeability of the test compounds was determined with a Caco-2 cell permeability assay according to Hubatsch I. et al (Nat. Protoc. 2007, 2 (9), 2111-2119).
(§2) The Caco-2 cell line is a continuous cell of heterogeneous human epithelial colorectal adenocarcinoma cells. When cultured as a confluent monolayer on a permeable support such as a cell culture insert filter, the cells differentiate to form a polarized epithelial cell monolayer that provides a physical and biochemical barrier to the passage of ions and small molecules. In form of the confluent monolayer, the Caco-2 cells serve in the pharmaceutical industry as a well established in vitro model of the human small intestinal mucosa to predict the absorption of orally administered drugs. Assessing transport in both directions (apical to basolateral (A-B) and basolateral to apical (B-A)) across the cell monolayer enables an efflux ratio to be determined which provides an indicator as to whether a compound undergoes active efflux. […] As will be appreciated, active efflux substantially compromises oral bioavailability.

Data set [2] in a line: metabolic stability assay in rat liver microsomes. Type of data set: in vitro ADME. The settings on record: for microsomal CLint at 1 μM: pH 7.4, male Wistar rat liver microsomes, 0.5 mg protein/mL, 1 μM test compound, NADPH. On the procedure:
Hepatic clearance is the most important drug elimination mechanism in the body and many marketed compounds are cleared by hepatic cytochrome P450-mediated metabolism. The excretion or elimination property of the test compounds was determined with a metabolic stability assay according to Obach R S (Drug Metab. Dispos. 1999, 27(11), 1350-1359).
Assays were performed in 96-deepwell-plates using liver microsomes pooled from male Wistar rats (Corning). Rat liver microsomal incubations were conducted in duplicate and incubation mixtures consisted of liver microsomes (0.5 mg microsomal protein/mL), test compound (1 μM), MgCl2 (2 mM), and NADPH (1 mM) in a total volume of 0.7 ml sodium phosphate buffer (100 mM, pH 7.4). Reactions were commenced with the addition of NADPH and shaken on a horizontal shaker with a fitted heating block at 37° C. At t=0 min and the time points: 10 min, 30 min and 60 min; aliquots (70 μL) were removed from the incubations and added to 140 μl termination mixtures. Termination mixtures consisted of acetonitrile supplemented with diazepam, diclofenac and griseofulvin as internal analytical standards. The quenched samples were processed by mixing and centrifugation (2,200×g, 5 minutes). The particle free supernatant was diluted 1+1 with deionised water and subsequently subjected to LC-MS for quantitative bioanalysis in terms of test compound depletion (pump flow rate: 600 μL/min; Kinetex Phenyl-Hexyl analytical column 2.6 μm, 50×2.1 mm (Phenomenex, Germany)). Incubations containing verapamil at a concentration of 1 μM were used as high clearance positive control (PC; n=2), and incubations without NADPH (70 μl phosphate buffer (supplemented with 2 mM MgCl2) instead of 70 μL NADPH solution), in order to verify that any apparent loss of test item in the assay incubation was due to metabolism, were used as negative control (NC; n=2).
Clint data allow to predict the hepatic clearance in vivo, or, in other words, can be used as an indicator for the half life of a compound in vivo and its oral bioavailability. Highly cleared compounds are generally considered to be unfavourable as they are rapidly cleared in vivo resulting in a short duration of action. Said another way, a lower in vitro intrinsic clearance is usually indicative of a longer half life in vivo and of a better oral bioavailability.

The target of data set [3] is T1, human bradykinin B2 receptor (hB2R) (Homo sapiens, UniProt P30411).
T1 sequence (P30411 1-391): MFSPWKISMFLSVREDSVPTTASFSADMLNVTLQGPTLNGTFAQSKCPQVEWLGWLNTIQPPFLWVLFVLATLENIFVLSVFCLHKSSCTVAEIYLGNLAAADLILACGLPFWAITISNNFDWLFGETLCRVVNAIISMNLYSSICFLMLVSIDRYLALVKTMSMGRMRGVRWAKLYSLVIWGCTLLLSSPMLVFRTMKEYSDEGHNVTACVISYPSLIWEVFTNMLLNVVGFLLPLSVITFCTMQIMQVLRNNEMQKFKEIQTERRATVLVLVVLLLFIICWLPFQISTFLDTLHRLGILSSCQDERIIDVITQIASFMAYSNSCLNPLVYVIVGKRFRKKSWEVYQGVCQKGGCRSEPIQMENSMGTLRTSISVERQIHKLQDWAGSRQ
Put plainly: cell-based human bradykinin B2 receptor calcium mobilization (hB2R-CaM) assay. The conditions noted are these: for pIC50: HTS041C cells, bradykinin at EC80, calcium mobilization, read-out: IC50-value towards human bradykinin B2 receptor (hB2R). In a few lines:
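HTS041C cells stably expressing hB2R were serum-reduced, loaded with Calcium 6 dye and pre-incubated with compound (8-point, n=2, 0.1% DMSO) for 25 min at 37° C. Bradykinin was then added at EC80. IC50 came from a 4-parameter logistic fit of the max-min fluorescence signal (485/525 nm).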

The test system of data set [4] is differentiated Caco-2 cell monolayer. In words: Caco-2 cell permeability assay (efflux ratio). Type of data set: in vitro ADME, human. The conditions noted are these: Papp B to A/Papp A to AB. As for the experimental part: as §1, §2

pIC50: −log10 of the molar value.

Take `Cc1cc(-n2cc(F)cn2)c2cccc(OCc3c(Cl)cc(F)cc3[C@H](C)NC(=O)[C@@H](C)O)c2n1` [Compound 1, (R)—N—((S)-1-(3-chloro-5-fluoro-2-((4-(4-fluoro-1H-pyrazol-1-yl)-2-methylquinolin-8-yloxy)methyl)phenyl)ethyl)-2-hydroxypropanamide]: the efflux ratio in data set [1] is 0.7. Moreover, the microsomal CLint at 1 μM in data set [2] came to 56 µL/min/mg. Besides, the pIC50 in data set [3] is 6.60 to 7.29.
`Cc1cc(-c2ncnn2C)c2cccc(OCc3c(Cl)cc(F)cc3[C@H](C)NC(=O)COC(F)F)c2n1` [Compound 6, (S)—N-(1-(3-chloro-5-fluoro-2-((2-methyl-4-(1-methyl-1H-1,2,4-triazol-5-yl)quinolin-8-yloxy)methyl)phenyl)ethyl)-2-(difluoromethoxy)acetamide]: the efflux ratio in data set [1] is 1. In addition, the “fold lower Clint as compared to Comparative Compound No. 171” value in data set [2] (versus Comparative Compound No. 171) is given as 17.8 fold. In addition, in data set [2] (versus Comparative Compound No. 174), the “fold lower Clint as compared to Comparative Compound No. 174” value is 4.8 fold. Further, the pIC50 in data set [3] is ≥ 7.30.
In the case of `[2H][C@@](C)(NC(=O)COC(F)F)c1cc(F)cc(Cl)c1COc1cccc2c(-c3ncnn3C)cc(C)nc12` [Compound 11, (S)—N-(1-deutero-1-(3-chloro-5-fluoro-2-((2-methyl-4-(1-methyl-1H-1,2,4-triazol-5-yl)quinolin-8-yloxy)methyl)phenyl)ethyl)-2-(difluoromethoxy)acetamide], the efflux ratio in data set [1] is 1.3. This compound returned a microsomal CLint at 1 μM in data set [2] of 20 µL/min/mg. Moreover, in data set [3], the negative-log IC50 (pIC50) was ≥ 7.30.
Regarding `Cc1cc(-n2cc(F)cn2)c2cccc(OCc3c(Cl)cc(F)cc3[C@H](C)NC(=O)[C@H](C)O)c2n1` [Compound 13], the efflux ratio in data set [1] was 0.6. The same compound came in with a microsomal CLint at 1 μM in data set [2] of 13 µL/min/mg. In addition, the pIC50 in data set [3] is 6.00 to 6.60. For the same compound, the “fold improvement of relative IC50 as compared to Comparative Compound No. 169” value in data set [3] (versus Comparative Compound No. 169) turned out to be 7.5 fold. For the same compound, in data set [3] (versus Comparative Compound No. 172), the “fold improvement of relative IC50 as compared to Comparative Compound No. 172” value is on record as 3.8 fold.
`Cc1cc(-n2cc(F)cn2)c2cccc(OCc3c(Cl)cncc3C(C)NC(=O)[C@H](C)O)c2n1` (stereo partly shown) [compound 169]: in data set [4], the “Caco-2 BA/AB (efflux ratio)” value was 3.4. Further, the efflux ratio in data set [1] is > 2. Moreover, the microsomal CLint at 1 μM in data set [2] was 427 µL/min/mg.
`Cc1cc(-n2cc(F)cn2)c2cccc(OCc3c(Cl)cncc3C(C)NC(=O)[C@@H](C)O)c2n1` (stereo partly shown) [compound 170]: the “Caco-2 BA/AB (efflux ratio)” value in data set [4] was 2.9. In data set [1], the efflux ratio was > 2. This compound also showed a microsomal CLint at 1 μM in data set [2] of 329 µL/min/mg.
On to `Cc1cc(-c2ncnn2C)c2cccc(OCc3c(Cl)cncc3C(C)NC(=O)COC(F)F)c2n1` (stereo not shown) [compound 171], for which the “Caco-2 BA/AB (efflux ratio)” value in data set [4] is reported as 7.7.
For `Cc1cc(-n2cc(F)cn2)c2cccc(OCc3c(Cl)cccc3C(C)NC(=O)[C@H](C)O)c2n1` (stereo partly shown) [compound 172, reference compound], the efflux ratio in data set [1] turned out to be 1.6. This compound had a microsomal CLint at 1 μM in data set [2] of 56 µL/min/mg.
In the case of `Cc1cc(-n2cc(F)cn2)c2cccc(OCc3c(Cl)cccc3C(C)NC(=O)[C@@H](C)O)c2n1` (stereo partly shown) [compound 173, reference compound], the efflux ratio in data set [1] was found to be 1.1. The compound also registered a microsomal CLint at 1 μM in data set [2] of 132 µL/min/mg.
As to `Cc1cc(-c2ncnn2C)c2cccc(OCc3c(Cl)cccc3C(C)NC(=O)COC(F)F)c2n1` (stereo not shown) [compound 174, reference compound], the efflux ratio in data set [1] was found to be 1.3. Besides, in data set [2], the microsomal CLint at 1 μM is 135 µL/min/mg.

Source of the values: patent US11820756B2, “Bradykinin B2 receptor antagonists” (Pharvaris Netherlands B.V., priority 2017, dated 2023).
